The record followed here is patent publication US5736352A, “Method and apparatus for determination of the activity of cholesterol oxidase and method and apparatus for evaluation of the toxicity of chemical substances” (priority 1995, dated 1998).

Where two headings read alike, the source gives them in different places.

This assay has as its system cholesterol oxidase. The assay is classed as biochemical. The note with it: for effect of the chemical substance on the activity of the cholesterol oxidase (toxicity), curve compared with curve 22: 1 mU/ml cholesterol oxidase, pH 7.45.
The mark [1] stands for this setting: 10 micro-M substance, film 70 mol % L-α-dimyristylphosphatizircoline / 30 mol % cholesterol.

Method: Any chemical substrance to be evaluated on the toxicity is previously dissolved or dispersed in the cholesterol oxidase solution 12. A monomolecule film is formed on a surface of the cholesterol oxidase solution 12 by use of a monomolecule film development solution including any phospholipid and any sterol. The surface pressure of the monomolecule film is measured to find a rate in the increase of the surface pressure of the monomolecule film. […] The reduction in the activity of the cholesterol oxidase results in a reduction in the increasing rate of the surface pressure of the monomolecule film. […] This means that the toxicitic chemical substance would be present in the cholesterol oxidase solution.
As a cholesterol oxidase solution 12, there was used a buffer solution including N-2-hydroxyethylpiperzane-N'-2-ethane sulfuric acid, where the ion strength is 0.1 and pH value is 7.45 as well as 1 mU/ml of the cholesterol oxidase is dissolved in the buffer solution. […] As a monomolecule film development solution 13, there was used a monomolecule film development solution comprising 70 mol % of L-α-dimyristylphosphatizircoline and 30 mol % of cholesterol.
The increasing rate of the surface pressure of the monomolecule film depends upon file cholesterol oxidase activity. As described above, the activity of the cholesterol oxidase depends upon the rate of increase in the surface pressure of the monomolecule film.

Regarding `CC(=O)[O-].CC(=O)[O-].[Pb+2]` [lead acetate], the “effect of the chemical substance on the activity of the cholesterol oxidase (toxicity), curve compared with curve 22” value (“effect … compared with curve 22” for short) under setting [1] is on record as “reduces the activity of the cholesterol oxidase”. Also, under “Cholesterol Oxidase 1 mU/ml, Lead Acetate 10 μ Mol, film 70 mol % L-α-dimyristylphosphatizircoline / 30 mol % cholesterol, five minutes after film was prepared, curve 23 (curve 22 without substance: 5.5 × 10^-2)”, the “Linear Differential Coefficient (rate of increase in the surface pressure of the monomolecule film)” value was 4.2 × 10^-2 mN/mmin.
With `[Cl][Hg][Cl]` [mercury chloride], the “effect … compared with curve 22” value (10 micro-M substance, film 70 mol % L-α-dipalmytylphosphatizircoline / 30 mol % dihydrocholesterol) is given as “reduces the activity of the cholesterol oxidase”.
Turning to `[Cl-].[Cl-].[Zn+2]` [zinc chloride], the “effect … compared with curve 22” value under setting [1] is reported as “reduces the activity of the cholesterol oxidase”.
Still for that read-out and setting: for `[Ca+2].[Cl-].[Cl-]` [calcium chloride] the value was “no toxicity”.
With `CCCCCCCCCCCCOS(=O)(=O)[O-].[Na+]` [sodium dodecylsulfate], where the note is “1 micro-M substance, film 70 mol % L-α-di-palmytylphosphatizir-ethanol / 30 mol % pregnenolone”, the “effect … compared with curve 22” value is reported as “reduces the activity of the cholesterol oxidase”.
